Test results: patent publication US8536175B2, “Quinoxaline carboxamide derivatives as protein tyrosine kinase inhibitors” (Novartis AG, priority 2008, dated 2013)

Biological target: FGFR3 kinase (Homo sapiens (Human), UniProt P22607, K650E)
Experiment: FGFR3 kinase inhibition (protein kinase activity assays)
Format: biochemical
Details: read-out: rating (FGFR3 kinase IC50)
Description: generic assay set-up: Enzyme activities were measured by mixing 10 μL of a 3-fold concentrated compound solution or control with 10 μL of the corresponding substrate mixture (peptidic substrate, ATP and [γ^33P]ATP). The reactions were initiated by addition of 10 μL of a 3-fold concentrated solution of the respective enzyme in assay buffer. […] Filter binding (FB) method: FB assays were carried out in 96-well plates at room temperature for 10 min in a finial volume of 30 μL including the components as indicated in section above. […] After spotting, vacuum was connected and each well rinsed with 200 μL 0.5% H3PO4. Free membranes were removed and washed 4 times on a shaker with 1% H3PO4 and once with ethanol. Membranes were dried and overlaid with addition of 10 μL/well of a scintillation fluid. The plates were eventually sealed and counted in a microplate scintillation counter. IC50 values were calculated by linear regression analysis of the percentage inhibition of the compound.
generic assay set-up: The assay has been run at room temperature on a liquid handling robot. […] After an incubation time of 45 min in the dark, the plates were transferred into a fluorescence reader for counting.
Compounds of formula (I) are assayed to measure their capacity to inhibit FGFR3 kinase as described above.

FGFR3 kinase, sequence (P22607 23-806 K650E): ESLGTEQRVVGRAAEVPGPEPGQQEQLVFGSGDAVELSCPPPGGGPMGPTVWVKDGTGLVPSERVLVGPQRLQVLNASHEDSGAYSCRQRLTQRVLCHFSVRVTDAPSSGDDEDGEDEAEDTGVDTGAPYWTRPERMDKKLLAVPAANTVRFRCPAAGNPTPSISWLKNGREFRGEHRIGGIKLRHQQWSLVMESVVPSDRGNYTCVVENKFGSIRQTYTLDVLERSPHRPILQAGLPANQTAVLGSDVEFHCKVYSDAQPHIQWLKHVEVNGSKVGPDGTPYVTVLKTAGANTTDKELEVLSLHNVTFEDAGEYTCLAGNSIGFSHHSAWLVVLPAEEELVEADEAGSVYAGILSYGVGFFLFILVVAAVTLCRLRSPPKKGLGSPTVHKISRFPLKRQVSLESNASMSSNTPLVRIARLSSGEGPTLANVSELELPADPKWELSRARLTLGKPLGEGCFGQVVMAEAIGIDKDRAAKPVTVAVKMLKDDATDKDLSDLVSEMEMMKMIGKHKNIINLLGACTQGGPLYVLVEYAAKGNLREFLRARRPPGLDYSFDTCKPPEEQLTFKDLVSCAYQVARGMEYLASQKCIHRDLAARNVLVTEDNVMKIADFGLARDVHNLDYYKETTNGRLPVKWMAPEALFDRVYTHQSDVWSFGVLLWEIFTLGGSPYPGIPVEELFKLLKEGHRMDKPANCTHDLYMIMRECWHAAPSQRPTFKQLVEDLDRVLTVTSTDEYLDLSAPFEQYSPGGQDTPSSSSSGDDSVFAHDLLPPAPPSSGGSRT

| Compound | IC50 |
| --- | --- |
| COc1cc(OC)c(Cl)c(-c2ccc(C(=O)Nc3ccc(CN4CCN(C)CC4)nc3)c3ncccc23)c1Cl [Example 168, 5-(2,6-Dichloro-3,5-dimethoxy-phenyl)-quinoline-8-carboxylic acid [6-(4-methyl-piperazin-1-ylmethyl)-pyridin-3-yl]amide] | 100 to 500 nM |
| CCN1CCN(Cc2ccc(NC(=O)c3ccc(-c4cc(OC)cc(OC)c4)c4nccnc34)nc2)CC1 [Example 115, 8-(3,5-Dimethoxy-phenyl)-quinoxaline-5-carboxylic acid [5-(4-ethyl-piperazin-1-ylmethyl)-pyridin-2-yl]-amide] | 500 to 50000 nM |
